The nature of this experiment: Compound was tested for the inhibition of influenza virus sialidase using 2'-(4-methylumbelliferyl)-N-acetylneuraminic acid substrate. On the set-up: species or system unidentified influenza virus.

Consider `CC(=O)NC1C(O)CC(O)(C(=O)O)OC1[C@H](O)[C@H](O)CO` (stereo not given in full), for which the inhibition constant Ki (usually a dissociation constant, usually derived from enzyme kinetics or from competition with a known ligand) is 1000 µM.

In turn, `CC(=O)N[C@@H]1C(NC(=N)N)C=C(C(=O)O)OC1[C@H](O)[C@H](O)CO` (stereo not given in full) yielded an inhibitory constant (Ki) of 3e-05 µM.

For the compound `CC(=O)NC1C(O)C=C(C(=O)O)OC1[C@H](O)[C@H](O)CO` (stereo not given in full), the inhibition constant Ki stood at 4 µM.

Compound `CC(=O)N[C@H]1[C@H]([C@H](O)[C@H](O)CO)OC(C(=O)O)=C[C@H]1N` showed a Ki of 0.04 µM.

For `CC(=O)N[C@@H]1C(N)C=C(C(=O)O)O[C@H]1[C@H](O)[C@H](O)CO` (single isomer, unassigned), the Ki came out at 0.3 µM.

(Values after ChEMBL document CHEMBL1129656, “A study of the active site of influenza virus sialidase: an approach to the rational design of novel anti-influenza drugs” (J Med Chem, 1996).)
